Columns and labels:
VCAM-1 [1] = assay: In Vitro VCAM-1 Assay - Method 1 (TNF-α stimulated endothelial cells, surface VCAM-1 ELISA); assay type: cell-based; conditions: Homo sapiens, Endothelial cell; HAEC or HPAEC, TNF-α 1 ng/ml with compound approximately 16 hours
Experimental: Cell Culture and compound dosing: Cultured primary human aortic (HAEC) or pulmonary (HPAEC) endothelial cells were obtained from Clonetics, Inc., and were used below passage 9. Cells were seeded in 96 well plates such that they would reach 90–95% confluency by the following day. On the following day the cells were stimulated with TNF-α (1 ng/ml) in the presence or absence of compounds dissolved in DMSO such that the final concentration of DMSO is 0.25% or less. To establish a dose curve for each compound, four concentrations in 2- to 5-fold increments were used. Cells were exposed to TNF-α and compounds for approximately 16 hours. The next day the cells were examined under microscope to score for visual signs of toxicity or cell stress.
Following 16 hr exposure to TNF-α and compound the media was discarded and the cells were washed once with Hanks Balanced Salt Solution (HBSS)/Phosphate buffered saline (PBS) (1:1). Primary antibodies against VCAM-1 (0.25 μg/ml in HBSS/PBS+5% FBS) were added and incubated for 30–60 minutes at 37° C. Cells were washed with HBSS/PBS three times, and secondary antibody Horse Radish Peroxidase (HRP)-conjugated goat anti-mouse IgG (1:500 in HBSS/PBS+5% FBS) were added and incubated for 30 minutes at 37° C. Cells were washed with HBSS/PBS four time and TMB substrate were added and incubated at room temperature in the dark until there was adequate development of blue color. The length of time of incubation was typically 5–15 minutes. 2N sulfuric acid was added to stop the color development and the data was collected by reading the absorbance on a BioRad ELISA plate reader at OD 450 nm. The results are expressed as IC50 values (the concentration (micromolar) of compound required to inhibit 50% of the maximal response of the control sample stimulated by TNF-α only). IC50's of tested compounds are tabulated in Biological Table 1.

TNF-α = assay: Cytokine screening: LPS-induced secretion of TNF-α from hPBMCs; assay type: cell-based; conditions: Homo sapiens, Biological Table 3; LPS-induced secretion from hPBMN cells; average of at least three determinations
Experimental: Fresh cryopreserved hPBMCs (1 million cells/ml; Clonetics, Inc.) were pretreated with test compound for 1 hr in lymphocyte growth media-3 (Clonetics, Inc.), followed by stimulation with 1 μg/ml of LPS for another 2 hr in the presence of test compound. Conditioned media was collected and assayed for secreted TNF-α, IL-1β and […] using commercially available human ELISA kits (R&D Systems). Samples were measured in duplicate and data presented as mean ± standard deviation. Each experiment was repeated at least three times with similar results.

Female Lewis rats = assay: In vivo rheumatoid arthritis model (Freund's complete adjuvant, paw swelling); conditions: paw swelling vs vehicle control
Experimental: Female Lewis rats (200–250 g) were sensitized with Freund's complete adjuvant (100 ug) by subcutaneous injection at the base of the tail. Paw swelling was monitored by measuring the volume of each foot with a plethysmometer on days 5, 8, 12–15. Animals were euthanized on day 15. […] Data is expressed as the % inhibition of paw swelling (AUC of the paw volume vs time curve d5–15) compared with vehicle control. The formulations used contained various mixtures of the following excipients (propylene glycol, polyethylene glycol, Tween 80, Glycofurol).

VCAM-1 [2] = assay: In Vitro VCAM-1 Assay - Method 2 (19 h predosing, 4 h TNFα stimulation, surface VCAM-1); assay type: cell-based; conditions: Homo sapiens; HAEC or HPAEC, predosed 19 hours, TNFα 1.5 ng/ml 4 hours
Experimental: Cultured primary human aortic (HAEC) or pulmonary artery (HPAEC) endothelial cells are obtained from BioWhittaker (formerly Clonetics), and are used below passage 9. Cells are seeded in 96-well plates such that they will reach ˜95% confluency by the following day (i.e.10,000 cells/well). Compounds are reconstituted in DMSO (100%) and sonicated to ensure maximum dissolution. Dilutions are then made in DMSO to 500× of final concentrations. These stocks are then diluted 500× into cell culture media (EGM-2 Mv, BioWhittaker) and placed overnight in tissue culture incubator (37° C., 5% CO2) to allow maximum dissolution).
Media is removed from the cells and replaced with the prewarmed dosing media. Cells are predosed in this manner for 19 hours at 37° C., 5% CO2. Remove media again from the cells and replace with prepared dosing media containing TNFα (1.5 ng/ml). Allow stimulation to continue for 4 hours at 37° C., 5% CO2. Media is removed and saved for evaluation of secreted factors as needed. Cells are used for quantitating surface VCAM-1, followed by Hoescht nuclear stain for cell number to determine toxicity. Assay for surface VCAM-1 continues as described in Method 1. IC50's of tested compounds are tabulated in Biological Table 1.

Balb/C mice = assay: In vivo asthma model (ovalbumin-sensitized mice, BAL fluid eosinophilia); conditions: 25 mg/kg, sc, qd; BALF eosinophilia vs vehicle control
Experimental: Balb/C mice (6–8 weeks old) were sensitized to ovalbumin (ova) (8 ug ova absorbed in 3.3 mg Alum inject) on days 0 and 5. On day 12, the mice were aerosol challenged with 0.5% ovalbumin dissolved in sterile saline for 1 hr in the AM, and then again in the PM (at least 4 hr apart). On day 14, the mice were anesthetized with ketamine/xylazine/acepromazine cocktail, exsanguinated, and then euthanized. Following blood collection, bronchoaveolar lavage (BAL) was performed on each animal. Total cell counts were conducted on the lavage fluid, which was subsequently diluted with cell media 1:1. Slides of the lavage fluid were made by spinning the samples with a cytospin centrifuge and then air drying. Cell differentials of the lavage fluid were determined by microscopic evaluation of hematoxylin and eosin-stained slides. Data are expressed as the % inhibition of eosinophilia in the BAL fluid compared to the vehicle control. […] The formulations used contained various mixtures of the following excipients (propylene glycol, polyethylene glycol, Tween 80, Glycofurol).

Row | IC50 (VCAM-1 [1]) [µM] | melting point [°C] | IC50 (TNF-α) [µM] | IC50 (VCAM-1 [2]) [µM] | SMILES | Rheumatoid arthritis model (25 mg/kg, sc, qd, inhibition of paw swelling in percentage) (Female Lewis rats) [percentage] | Inhibition of BAL fluid eosinophilia (asthma model) (Balb/C mice) [percentage]
1 | 7 | 115 to 119 | – | – | CN(CC(=O)O)C(=O)COc1c(C(C)(C)C)cc(SC(C)(C)Sc2cc(C(C)(C)C)c(O)c(C(C)(C)C)c2)cc1C(C)(C)C [Ex-4, [(2-{2,6-Di-tert-butyl-4-[1-(3,5-di-tert-butyl-4-hydroxyphenylsulfanyl)-1-methylethylsulfanyl]phenoxy}acetyl)methylamino]acetic acid] | – | –
2 | 21 | 75 to 77 | – | 9.2 | CC(C)(Sc1cc(C(C)(C)C)c(O)c(C(C)(C)C)c1)Sc1cc(C(C)(C)C)c(OCCC(O)C(O)CCO)c(C(C)(C)C)c1 (stereo not drawn) [Ex-14, 6-{2,6-Di-tert-butyl-4-[1-(3,5-di-tert-butyl-4-hydroxy-phenylsulfanyl)-1-methyl-ethylsulfanyl]-phenoxy}-hexane-1,3,4-triol] | – | 84
3 | – | 62 to 64 | – | – | COC[C@H](O)[C@@H](O)COc1c(C(C)(C)C)cc(SC(C)(C)Sc2cc(C(C)(C)C)c(O)c(C(C)(C)C)c2)cc1C(C)(C)C [Ex-15, 1-{2,6-Di-tert-butyl-4-[1-(3,5-di-tert-butyl-4-hydroxyphenylsulfanyl)-1-methylethylsulfanyl]phenoxy}-4-methoxybutane-2(S),3(S)-diol] | – | –
4 | – | 68 to 70 | – | – | COC[C@@H](O)[C@H](O)COc1c(C(C)(C)C)cc(SC(C)(C)Sc2cc(C(C)(C)C)c(O)c(C(C)(C)C)c2)cc1C(C)(C)C [Ex-16, 1-{2,6-Di-tert-butyl-4-[1-(3,5-di-tert-butyl-4-hydroxyphenylsulfanyl)-1-methylethylsulfanyl]phenoxy}-4-methoxybutane-2(R),3(R)-diol] | 63 | 44
5 | > 50 | – | – | – | COCCOCCOCCOc1c(C(C)(C)C)cc(SC(C)(C)Sc2cc(C(C)(C)C)c(O)c(C(C)(C)C)c2)cc1C(C)(C)C [Ex-19, 2,6-Di-tert-butyl-4-[1-(3,5-di-tert-butyl-4-{2-[2-(2-methoxyethoxy)-ethoxy]ethoxy}-phenyl-sulfanyl)-1-methylethylsulfanyl]phenol] | – | –
6 | – | 60 to 62 | – | – | CCOC1O[C@H](CO)[C@@H](COc2c(C(C)(C)C)cc(SC(C)(C)Sc3cc(C(C)(C)C)c(O)c(C(C)(C)C)c3)cc2C(C)(C)C)O1 (stereo partly drawn) [compound 9, 2,6-Di-tert-butyl-4-{1-[3,5-di-tert-butyl-4-(2-ethoxy-5(R)-hydroxymethyl-[1,3]dioxolan-4(R)-ylmethoxy)-phenylsulfanyl]-1-methyl-ethylsulfanyl}-phenol] | – | –

The next lines start with the compound.

Row | SMILES | IC50 (VCAM-1 [1]) [µM] | melting point [°C] | IC50 (TNF-α) [µM] | IC50 (VCAM-1 [2]) [µM] | Rheumatoid arthritis model (25 mg/kg, sc, qd, inhibition of paw swelling in percentage) (Female Lewis rats) [percentage] | Inhibition of BAL fluid eosinophilia (asthma model) (Balb/C mice) [percentage]
7 | CC(C)(Sc1cc(C(C)(C)C)c(O)c(C(C)(C)C)c1)Sc1cc(C(C)(C)C)c(OCC(=O)NCC(=O)O)c(C(C)(C)C)c1 [Ex-3, (2-{2,6-Di-tert-butyl-4-[1-(3,5-di-tert-butyl-4-hydroxyphenylsulfanyl)-1-methylethylsulfanyl]phenoxy}acetylamino)acetic acid] | 6 | – | – | – | – | –
8 | CC(C)(Sc1cc(C(C)(C)C)c(O)c(C(C)(C)C)c1)Sc1cc(C(C)(C)C)c(OCC(=O)NCCC(=O)O)c(C(C)(C)C)c1 [Ex-5, 3-(2-{2,6-Di-tert-butyl-4-[1-(3,5-di-tert-butyl-4-hydroxyphenylsulfanyl)-1-methylethylsulfanyl]phenoxy}acetylamino)propionic acid] | 6 | – | – | – | – | –
9 | CC(C)(Sc1cc(C(C)(C)C)c(O)c(C(C)(C)C)c1)Sc1cc(C(C)(C)C)c(OCC(=O)NC(CO)CO)c(C(C)(C)C)c1 [Ex-6, 2-{2,6-Di-tert-butyl-4-[1-(3,5-di-tert-butyl-4-hydroxyphenylsulfanyl)-1-methyl-ethylsulfanyl]phenoxy}-N-(2-hydroxy-1-hydroxymethyl-ethyl)acetamide] | 6 | 163 to 164 | – | – | – | –
10 | CC(C)(Sc1cc(C(C)(C)C)c(O)c(C(C)(C)C)c1)Sc1cc(C(C)(C)C)c(OCC[C@H](O)CO)c(C(C)(C)C)c1 [Ex-10, 4-{2,6-Di-tert-butyl-4-[1-(3,5-di-tert-butyl-4-hydroxy-phenylsulfanyl)-1-methyl-ethylsulfanyl]-phenoxy}-butane-1,2(S)-diol] | 40 | 110 to 112 | 3.8 | 8 | 85 | 78
11 | CC(C)(Sc1cc(C(C)(C)C)c(O)c(C(C)(C)C)c1)Sc1cc(C(C)(C)C)c(OCC[C@@H](O)CO)c(C(C)(C)C)c1 [Ex-11, 4-{2,6-Di-tert-butyl-4-[1-(3,5-di-tert-butyl-4-hydroxy-phenylsulfanyl)-1-methyl-ethylsulfanyl]-phenoxy}-butane-1,2(R)-diol] | > 50 | – | 4.4 | 7 | 85 | 95
12 | CC(C)(Sc1cc(C(C)(C)C)c(O)c(C(C)(C)C)c1)Sc1cc(C(C)(C)C)c(OCCC[C@H](O)CO)c(C(C)(C)C)c1 [Ex-13, 5-{2,6-Di-tert-butyl-4-[1-(3,5-di-tert-butyl-4-hydroxy-phenylsulfanyl)-1-methyl-ethylsulfanyl]-phenoxy}-pentane-1,2(S)-diol] | – | 68 to 71 | – | 11 | – | 60
13 | CC(C)(Sc1cc(C(C)(C)C)c(O)c(C(C)(C)C)c1)Sc1cc(C(C)(C)C)c(OCC(CO)CO)c(C(C)(C)C)c1 [Ex-18, 2-{2,6-Di-tert-butyl-4-[1-(3,5-di-tert-butyl-4-hydroxyphenylsulfanyl)-1-methylethyl-sulfanyl]phenoxymethyl}propane-1,3-diol] | 13 | – | 4.5 | 6 | 83 | 60
14 | CC(C)(Sc1cc(C(C)(C)C)c(O)c(C(C)(C)C)c1)Sc1cc(C(C)(C)C)c(OCCO)c(C(C)(C)C)c1 [compound 17, 2,6-Di-tert-butyl-4-{1-[3,5-di-tert-butyl-4-(2-hydroxy-ethoxy)-phenylsulfanyl]-1-methyl-ethylsulfanyl}-phenol] | – | 146 to 147 | – | – | – | –
